From ChEMBL document CHEMBL1125440, “Synthesis and antiviral activity of acyclic nucleosides with a 3(S),5-dihydroxypentyl or 4(R)-methoxy-3(S),5-dihydroxypentyl side chain” (1992) come the findings set out here.

Test [1] concerns E6SM. Description: (§1) Compounds was evaluated for its inhibitory effect on cytopathogenicity of vesicular stomatitis virus (VSV) in E6SM cells. The following applies: Homo sapiens. The format is functional. On the technique in general: Protection from cytopathic effect is a common read-out in antiviral testing.
Test [2] concerns E6SM. Briefly: Minimum inhibitory concentration (MIC) required to reduce VMW 1837 strain of TK-HSV-1 induced cytopathogenicity by 50% in E6SM cells. The following applies: Homo sapiens. The format is functional.
Test [3] has as its system E6SM. Briefly: Minimum inhibitory concentration (MIC) required to reduce F strain of HSV-1 induced cytopathogenicity by 50% in E6SM cells. The test is classed as functional. The following applies: Homo sapiens.
The test system of test [4] is E6SM. Briefly: Minimum inhibitory concentration (MIC) required to reduce B2006 strain of TK-HSV-1 induced cytopathogenicity by 50% in E6SM cells. The following applies: Homo sapiens. The format is functional.
Test [5] deals with E6SM. Briefly: Minimum cytotoxic concentration (MCC) required to cause a microscopically detectable alteration of normal cell morphology against E6SM cells. The following applies: Homo sapiens. The test is classed as functional.
Test [6] relates to E6SM. Description: Minimum inhibitory concentration (MIC) required to reduce KOS strain of HSV-1 induced cytopathogenicity by 50% in E6SM cells. The following applies: Homo sapiens. The test is classed as functional.
Test [7] has as its system E6SM. Briefly: Minimum inhibitory concentration (MIC) required to reduce G strain of HSV-2 induced cytopathogenicity by 50% in E6SM cells. The following applies: Homo sapiens. The format is functional.
Test [8] relates to E6SM. Description: (§2) Compounds was evaluated for its inhibitory effect on cytopathogenicity of vaccinia virus (VV) in E6SM cells. The format is functional. The following applies: Homo sapiens.
In test [9] the test system is E6SM. Briefly: Minimum inhibitory concentration (MIC) required to reduce 196 strain of HSV-2 induced cytopathogenicity by 50% in E6SM cells. The format is functional. The following applies: Homo sapiens.
Test [10] deals with E6SM. Briefly: Minimum inhibitory concentration (MIC) required to reduce McIntyre strain of HSV-1 induced cytopathogenicity by 50% in E6SM cells. The format is functional. The following applies: Homo sapiens.
Test [11] has as its system E6SM. Briefly: Minimum inhibitory concentration (MIC) required to reduce Lyons strain of HSV-2 induced cytopathogenicity by 50% in E6SM cells. The format is functional. The following applies: Homo sapiens.
For test [12], the system named is E6SM. The description is as §2. The test is classed as functional, Homo sapiens.
For test [13], the system named is E6SM. The description is as §1. The test is classed as functional, Homo sapiens.

SMILES strings stand for the structures. Converted amounts (≈) assume the structure as drawn. Bounds are passed on as bounds.

Regarding `Nc1nc(O)c2ncn(CC[C@H](O)CCO)c2n1`, the MIC against E6SM [1] is > 400 µg/mL; in the test on E6SM [2] it was > 400 µg/mL; against E6SM [3] it was 0.4 µg/mL (≈ 1.58 µM); in the test with E6SM [4], > 400 µg/mL; with E6SM [6], 0.4 µg/mL (≈ 1.58 µM); in the test on E6SM [7], 4 µg/mL (≈ 15.8 µM). In addition, the MIC in the test with E6SM [8] is > 400 µg/mL; in the test with E6SM [9], 20 µg/mL (≈ 79 µM); against E6SM [10], 0.6 µg/mL (≈ 2.37 µM); against E6SM [11], 5 µg/mL (≈ 19.7 µM). The MCC in the test on E6SM [5] is > 400 µg/mL.

Regarding `Nc1ncnc2c1ncn2C[C@H](O)CO` [(S)-DHPA], the MIC with E6SM [1] was 70 µg/mL (≈ 335 µM); in the test with E6SM [2] it was > 400 µg/mL; in the test with E6SM [3] it was 70 µg/mL (≈ 335 µM); against E6SM [4], 300 µg/mL (≈ 1430 µM); against E6SM [6] it was 300 µg/mL (≈ 1430 µM); in the test on E6SM [7], 300 µg/mL (≈ 1430 µM). In addition, the MIC in the test with E6SM [8] was determined as 70 µg/mL (≈ 335 µM); with E6SM [9], 300 µg/mL (≈ 1430 µM); against E6SM [10], 70 µg/mL (≈ 335 µM); against E6SM [11], 250 µg/mL (≈ 1190 µM). Also, the MCC in the test with E6SM [5] is > 400 µg/mL.

`Nc1nc2c(ncn2COCCO)c(=O)[nH]1` [ACYCLOVIR]: the MIC with E6SM [2] was determined as 10 µg/mL (≈ 44.4 µM); against E6SM [3], 0.04 µg/mL (≈ 0.178 µM); with E6SM [4], 70 µg/mL (≈ 311 µM); in the test on E6SM [6] it was 0.07 µg/mL (≈ 0.311 µM); against E6SM [7] it was 0.04 µg/mL (≈ 0.178 µM); with E6SM [9], 0.015 µg/mL (≈ 0.0666 µM). Besides, the MIC in the test with E6SM [10] and against E6SM [11] was 0.02 µg/mL (≈ 0.0888 µM) throughout. Besides, in the test on E6SM [12], the VV is reported as >400. Moreover, the MCC in the test with E6SM [5] was > 400 µg/mL. In addition, the VSV with E6SM [13] was >400.
